ChEMBL document CHEMBL1201862, “PubChem BioAssay data set” (2004)
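Five compound concentrations were applied to cells in 96-well plates for 48 hours; endpoints were derived by simple linear interpolation of the resulting dose-response curve. At the GI50, growth is halved.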 Active and inactive are the calls of the source. Rule as the data show it: active = GI50 up to about 1.1 µM and inactive = higher.

Key:
Assay in all cases: growth of human tumour cells (NCI), 48 h
[1] = tested on: MOLT-4
[2] = tested on: MCF7
[3] = tested on: M14
[4] = tested on: COLO 205
[5] = tested on: RXF 393
[6] = tested on: OVCAR-5
[7] = tested on: SK-MEL-2
[8] = tested on: Malme-3M
[9] = tested on: 786-0
[10] = tested on: BT-549
[11] = tested on: NCI/ADR-RES
[12] = tested on: HL-60
[13] = tested on: SF-539
[14] = tested on: OVCAR-4
[15] = tested on: EKVX
[16] = tested on: SF-268
[17] = tested on: DU-145
[18] = tested on: MDA-N
[19] = tested on: LOX IMVI
[20] = tested on: NCI-H460

Row | Compound | GI50 [1] | GI50 [2] | GI50 [3] | GI50 [4] | GI50 [5] | GI50 [6] | GI50 [7] | GI50 [8] | GI50 [9] | GI50 [10] | GI50 [11] | GI50 [12] | GI50 [13] | GI50 [14] | GI50 [15] | GI50 [16] | GI50 [17] | GI50 [18] | GI50 [19] | GI50 [20]
1 | CCCC(=O)NC(Nc1cc(C)ccn1)(C(=O)OCC)C(F)(F)F (stereo not drawn) | > 100 µM (inactive) | > 100 µM (inactive) | > 100 µM (inactive) | > 100 µM (inactive) | > 100 µM (inactive) | > 100 µM (inactive) | > 100 µM (inactive) | > 100 µM (inactive) | > 100 µM (inactive) | > 100 µM (inactive) | > 100 µM (inactive) | > 100 µM (inactive) | > 100 µM (inactive) | > 100 µM (inactive) | > 100 µM (inactive) | > 100 µM (inactive) | > 100 µM (inactive) | > 100 µM (inactive) | > 100 µM (inactive) | –
2 | CC1=C2NCN(C)N=C2C(C#N)(C#N)C1(C#N)C#N | 2.56 µM (inactive) | 19.8 µM (inactive) | 23.8 µM (inactive) | 5 µM (inactive) | 19.1 µM (inactive) | 33.5 µM (inactive) | > 61.7 µM (inactive) | 20.4 µM (inactive) | 19.5 µM (inactive) | 21.6 µM (inactive) | 28.6 µM (inactive) | 1.93 µM (inactive) | 27 µM (inactive) | 20 µM (inactive) | 26 µM (inactive) | 32.2 µM (inactive) | 42.3 µM (inactive) | 15.6 µM (inactive) | 20.8 µM (inactive) | –
3 | O=C1/C(=C/c2ccco2)N=C(c2ccccc2)N1c1cc2cc(Sc3ccccc3)ccc2[nH]1 | 22.4 µM (inactive) | 11 µM (inactive) | 21.6 µM (inactive) | 8.51 µM (inactive) | 13.1 µM (inactive) | 21.6 µM (inactive) | 7.53 µM (inactive) | > 25 µM (inactive) | > 25 µM (inactive) | 19.4 µM (inactive) | 10.2 µM (inactive) | 0.214 µM (active) | 17.9 µM (inactive) | > 25 µM (inactive) | 15.5 µM (inactive) | > 25 µM (inactive) | > 25 µM (inactive) | 7.21 µM (inactive) | 12.3 µM (inactive) | –
4 | Nc1ccccc1CCN1CCN(CCCc2ccccc2)CC1 | 53.3 µM (inactive) | 46.8 µM (inactive) | 17.3 µM (inactive) | 21 µM (inactive) | – | > 100 µM (inactive) | > 100 µM (inactive) | 14.1 µM (inactive) | 31.7 µM (inactive) | > 100 µM (inactive) | 90.4 µM (inactive) | 17.8 µM (inactive) | 39.2 µM (inactive) | 65.8 µM (inactive) | > 100 µM (inactive) | 99.5 µM (inactive) | > 100 µM (inactive) | 53 µM (inactive) | 34.4 µM (inactive) | 41.1 µM (inactive)
5 | CCOC(=O)/C(C#N)=C/Nc1c(C)n(C)n(-c2ccccc2)c1=O | > 100 µM (inactive) | > 100 µM (inactive) | > 100 µM (inactive) | > 100 µM (inactive) | > 100 µM (inactive) | > 100 µM (inactive) | > 100 µM (inactive) | > 100 µM (inactive) | > 100 µM (inactive) | > 100 µM (inactive) | 47.6 µM (inactive) | > 100 µM (inactive) | > 100 µM (inactive) | > 100 µM (inactive) | > 100 µM (inactive) | – | > 100 µM (inactive) | > 100 µM (inactive) | > 100 µM (inactive) | –
6 | CC(=O)OCCn1c(Cc2ccc(Cl)cc2)nn(C(C)=O)c1=O | > 100 µM (inactive) | > 100 µM (inactive) | > 100 µM (inactive) | > 100 µM (inactive) | – | > 100 µM (inactive) | > 100 µM (inactive) | > 100 µM (inactive) | > 100 µM (inactive) | > 100 µM (inactive) | > 100 µM (inactive) | > 100 µM (inactive) | > 100 µM (inactive) | > 100 µM (inactive) | > 100 µM (inactive) | > 100 µM (inactive) | > 100 µM (inactive) | > 100 µM (inactive) | > 100 µM (inactive) | > 100 µM (inactive)
